Reference: PubChem BioAssay AID504574 (Southern Research Specialized Biocontainment Screening …, 2011)

What follows are compounds tested on cytotoxicity counter-screen, cell viability, 2% serum (assay: host cell cytotoxicity, X4 fusion assay cells, dose response, cytotoxicity control for HIV-1 antiviral lead project, CXCR4-tropic fusion assay, 2% serum, set 2 (AID 504574)).

SMILES	CC50 [µM]
Cc1c2c(=O)n(-c3nc4ccccc4s3)nc-2cc(O)n1Cc1cccs1	5.51
Cc1c2c(=O)n(-c3nc4ccccc4s3)nc-2cc(O)n1CCc1cccs1	16
COc1ccc(Cn2c(O)cc3nn(-c4nc5ccccc5s4)c(=O)c-3c2C)cc1	5.52
Cc1c2c(=O)n(-c3nc4ccccc4s3)nc-2cc(O)n1Cc1ccccc1Cl	6.06
Cc1c2c(=O)n(-c3nc4ccccc4s3)nc-2cc(O)n1CCc1ccc(O)cc1	3.34
Cc1c2c(=O)n(-c3nc4ccccc4s3)nc-2cc(O)n1Cc1ccncc1	9.26
COc1ccc(CCn2c(O)cc3nn(-c4nc5ccccc5s4)c(=O)c-3c2C)cc1	23.4
Cc1c2c(=O)n(-c3nc4ccccc4s3)nc-2cc(O)n1Cc1cccnc1	7.86
Cc1c2c(=O)n(-c3nc4ccccc4s3)nc-2cc(O)n1C1CC1	3.82
COc1ccccc1Cn1c(O)cc2nn(-c3nc4ccccc4s3)c(=O)c-2c1C	15.1
Cc1c2c(=O)n(-c3nc4ccccc4s3)nc-2cc(O)n1CCC(C)C	18.6
Cc1c2c(=O)n(-c3nc4ccccc4s3)nc-2cc(O)n1Cc1ccccc1	8.94
Cc1c2c(=O)n(-c3nc4ccccc4s3)nc-2cc(O)n1Cc1ccc(F)cc1	4.88
